Source: article PMC3790851, “Improved Mass Spectrometry Assay For Plasma Hepcidin: Detection and Characterization of a Novel Hepcidin Isoform” (PLoS ONE, 2013)

Assays:
[1] = Stability of hepcidin in plasma/serum at room temperature (WCX-TOF MS); assay type: in vitro ADME, human
Description: Spectra were analyzed by using Bruker Daltonics FlexAnalysis software.
To assess the stability of hepcidin in serum and plasma matrices, we kept samples from intensive care patients (n = 20) and healthy controls (n = 5) at room temperature for 0–7 days followed by WCX-TOF MS analysis using the hepcidin-25^+40 internal standard. […] For the samples at day 1 and day 7, the mean decrease in hepcidin-25 for the 5 controls and 20 intensive care patients was 90% (CV, 8% ) and 55% (CV, 23%), respectively (Table 3).

[2] = in vitro; settings: human
Description: Samples were used for measurement of hepcidin between 4–7 hrs after blood drawing and/or pooled and/or stored in aliquots at various temperatures for prolonged periods of time.
Fresh samples were measured within 2–4 hrs hours after blood drawing and stored in aliquots at various temperatures for prolonged incubation.
Mass-to-charge (m/z) spectra were generated by using MALDI-TOF MS (Microflex LT, Bruker Daltonics). Spectra were analyzed by using Bruker Daltonics FlexAnalysis software. […] Total hepcidin concentration was defined as the sum of hepcidin-25, -24, -22, and -20 concentrations.
Using the novel heavy hepcidin-25 internal standard, we assessed changes in hepcidin-25 and the smaller isoforms in various samples containing various anticoagulants ex vivo at room temperature (RT), 4°C, −20°C and −80°C. More specifically, changes in hepcidin concentrations relative to those found in freshly collected samples were determined i) at storage at RT and 4°C on day 0 (fresh samples), 1 (14–22 hrs), 2, 3, and 7 days after sampling/storage, ii) at −20°C after 1 week, and after 1, 4 and 6 months of storage and iii) at −80°C at after 6 months of storage.
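For Hepcidin level after one week at -20°C, EDTA plasma in this document: hepcidin in stored plasma or serum quantified by MALDI-TOF MS against a heavy hepcidin-25 internal standard, expressed relative to concentrations in freshly collected samples.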
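For no significant change at -20°C for in this document: hepcidin in stored plasma or serum quantified by MALDI-TOF MS against a heavy hepcidin-25 internal standard, expressed relative to concentrations in freshly collected samples.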
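For stable at -20°C for in this document: hepcidin in stored plasma or serum quantified by MALDI-TOF MS against a heavy hepcidin-25 internal standard, expressed relative to concentrations in freshly collected samples.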

Compound: CC[C@H](C)[C@@H]1NC(=O)[C@@H](NC(=O)[C@@H](NC(=O)[C@@H]2CCCN2C(=O)[C@H](Cc2ccccc2)NC(=O)[C@H](Cc2c[nH]cn2)NC(=O)[C@@H](NC(=O)[C@@H](N)CC(=O)O)[C@@H](C)O)[C@@H](C)CC)CSSC[C@@H](C(=O)N[C@@H](CCCCN)C(=O)N[C@H](C(=O)O)[C@@H](C)O)NC(=O)[C@@H]2CSSC[C@H](NC(=O)[C@H](Cc3ccccc3)NC1=O)C(=O)N[C@H]1CSSC[C@H](NC(=O)[C@H](CCCCN)NC(=O)[C@H](CO)NC(=O)[C@H](CCCNC(=N)N)NC(=O)[C@H](Cc3c[nH]cn3)NC(=O)[C@@H]3CSSC[C@H](NC(=O)CNC1=O)C(=O)N3)C(=O)NCC(=O)N[C@@H](CCSC)C(=O)N2 [Hepcidin-25]
- Hepcidin level after one week at RT ([1]; average, % of fresh sample, 7 days, human heparin plasma, 19 IC patients + 5 controls, results <1.0 nM removed, WCX-TOF MS, hepcidin-25^+40 internal standard, CV (Hep-25/-24/-22/-20/Total) 23/29/29/38/17, n = 24/15/13/18/11): 55%
- Hepcidin level after one day at RT ([1]; average, % of fresh sample, human heparin plasma, 19 IC patients + 5 controls, results <1.0 nM removed, WCX-TOF MS, hepcidin-25^+40 internal standard, CV (Hep-25/-24/-22/-20/Total) 8/21/14/25/5, n = 24/15/13/18/11): 90%
- Hepcidin level after one week at RT, without protease inhibitors ([1]; average, % of fresh, 7 days, heparin plasma, 10 IC patients, results <1 nM excluded, CV (Hep-25/-24/-22/-20) 30/31/23/41, n = 10/8/7/8): 48%
- Hepcidin level after one day at RT, without protease inhibitors ([1]; average, % of fresh, heparin plasma, 10 IC patients, results <1 nM excluded, CV (Hep-25/-24/-22/-20) 13/20/11/11, n = 10/8/7/8): 89%
- mean hepcidin-25 level remaining at day 1 at RT, % of fresh ([1]; heparin plasma, 5 controls and 20 intensive care patients, CV 8%): 90%
- effect of protease inhibitors on hepcidin-25 decrease ([1]; heparin samples of IC patients (n = 10), RT): prevented hepcidin-25 processing to a certain extend but did not block its decrease completely
- remaining at 168 h ([1]; human, average, % of fresh, 7 days, heparin plasma, 10 IC patients, Complete Mini (Roche), CV (Hep-25/-24/-22/-20) 25/35/9/25, n = 10/8/7/8, read-out: Hepcidin level after one week at RT, with protease inhibitors): 69%
- remaining at 1 day ([1]; human, average, % of fresh, heparin plasma, 10 IC patients, Complete Mini (Roche), 1 tablet in 200 µL PBS, 20 µL per 1 ml plasma, CV (Hep-25/-24/-22/-20) 8/30/4/14, n = 10/8/7/8, read-out: Hepcidin level after one day at RT, with protease inhibitors): 91%
- stable at -20°C for (EDTA and heparin plasma of 10 intensive care patients and 5 controls): at least 4 weeks
- Hepcidin level after one week at -20°C, EDTA plasma (average, % of fresh, 10 IC patients and 5 controls, CV (Hep-25/-24/-22/-20) 11/12/11/28, n = 15/8/6/9, hepcidin-20 unreliable (additional peak)): 96%
- hepcidin-25 relative to fresh samples upon freezing (heparin samples at 7 days, -20°C, IC + control n = 15, CV 8%): 95%
- no significant change at -20°C for (serum, heparin, EDTA and citrate plasma of healthy controls (n = 5)): at least 6 months
- remaining at 1 mnt ([2]; EDTA plasma): 94%
- remaining at 4 mnts ([2]; EDTA plasma): 92%
- remaining at 6 months ([2]; EDTA plasma): 88%
- remaining at 168 h ([2]; EDTA plasma): 89%
- remaining at 672 h ([2]; EDTA plasma): 99%
- remaining at 1 mnt ([2]; citrate plasma): 95%
- remaining at 4 mnts ([2]; citrate plasma): 102%
- remaining at 6 mnts ([2]; citrate plasma): 97%
- remaining at 168 h ([2]; citrate plasma): 97%
- remaining at 1 mnt ([2]; heparin plasma): 92%
- remaining at 4 mnts ([2]; heparin plasma): 100%
- remaining at 6 mnts ([2]; heparin plasma): 83%
- remaining at 168 h ([2]; heparin plasma): 96%
- remaining at 672 h ([2]; heparin plasma): 97%
- remaining at 1 mnt ([2]; serum): 96%
- remaining at 4 mnts ([2]; serum): 98%
- remaining at 6 mnts ([2]; serum): 99%
- remaining at 168 h ([2]; serum): 97%
